One assay has as its target T1, BRD4 BD1 (Homo sapiens, UniProt O60885).
T1 construct: HEK293 cells were transfected using NanoLuc-BRD4-BD1 or NanoLuc-BRD4-BD2 fusion vectors
Nature of the assay: NanoBRET bromodomain assay, NanoLuc-BRD4-BD1 in HEK293 cells. The class given is binding. As to the method: Exemplary compounds of the disclosure are active against BRD4 BD2 and selective over BRD4 BD1. BRD4 is a representative example of the BET family, as the binding sites of all BET family members are structurally similar. […] IC50s and fold selectivity's are determined as described below and are represented in Table 1.
(§1) Plates were then incubated at 37° C.+5% CO2 incubator for 2 hours.
(§2) Fold Selectivity Calculated (IC50 BD1/IC50 BD2).

The target of another assay is T2, BRD4 BD2 (Homo sapiens, UniProt O60885).
T2 construct: HEK293 cells were transfected using NanoLuc-BRD4-BD1 or NanoLuc-BRD4-BD2 fusion vectors
Description: NanoBRET bromodomain assay, NanoLuc-BRD4-BD2 in HEK293 cells. The class given is binding. Particulars: for Fold Selectivity BRD4 BD1/BD2: IC50 BD1/IC50 BD2, qualitative if an IC50 is at the upper limit. As to the method:
as §1, §2

Where only a bound is given, the exact number is not on record here.

`Cn1cc(-c2cccc(C3COC3)c2)c(-c2cn(C)c(=O)c3[nH]c(-c4ccc(F)cc4F)cc23)cc1=O` [Example 35, 2-(2,4-difluorophenyl)-6-methyl-4-(1-methyl-5-(3-(oxetan-3-yl)phenyl)-2-oxo-1,2-dihydropyridin-4-yl)-1,6-dihydro-7H-pyrrolo[2,3-c]pyridin-7-one]: the IC50 (as a rule, the point on the concentration scale where inhibition reaches its midpoint) against BRD4 BD1 was over 1 µM. At BRD4 BD2, the IC50 was 0.01 to 0.05 µM; the “Fold Selectivity BRD4 BD1/BD2” value was “xxx (Fold >200 and ≤1000)”.
At BRD4 BD1, `Cn1cc(-c2cc(=O)n(C3CC3)cc2-c2ccccc2)c2cc(-c3ccc(F)cc3F)[nH]c2c1=O` [Example 49, 4-(1-cyclopropyl-2-oxo-5-phenyl-1,2-dihydropyridin-4-yl)-2-(2,4-difluorophenyl)-6-methyl-1,6-dihydro-7H-pyrrolo[2,3-c]pyridin-7-one] came in with an IC50 of over 1 µM. Also, on BRD4 BD2, the 50% inhibitory concentration (IC50) is under 0.01 µM and the “Fold Selectivity BRD4 BD1/BD2” value was “xxxx (Fold >1000)”.
The like results for `COCCOc1cccc(-c2cn(C)c(=O)cc2-c2cn(C)c(=O)c3[nH]c(-c4ccc(F)cc4F)cc23)c1` [Example 53, 2-(2,4-difluorophenyl)-4-(5-(3-(2-methoxyethoxy)phenyl)-1-methyl-2-oxo-1,2-dihydropyridin-4-yl)-6-methyl-1,6-dihydro-7H-pyrrolo[2,3-c]pyridin-7-one] were, in that order, over 1 µM, under 0.01 µM and “xxxx (Fold >1000)”.
Turning to `Cc1c(-c2cnn(C(F)(F)F)c2)[nH]c2c(=O)n(C)cc(-c3cc(=O)n(C)cc3-c3ccccc3)c12` [Example 20, 3,6-dimethyl-4-(1-methyl-2-oxo-5-phenyl-1,2-dihydropyridin-4-yl)-2-(1-(trifluoromethyl)-1H-pyrazol-4-yl)-1,6-dihydro-7H-pyrrolo[2,3-c]pyridin-7-one], the results for the IC50 on BRD4 BD1 and on BRD4 BD2 were over 1 µM and 0.01 to 0.05 µM, respectively. For the same compound, the “Fold Selectivity BRD4 BD1/BD2” value on BRD4 BD2 is “xxx (Fold >200 and ≤1000)”.
In turn, `Cc1cc(-c2cc3c(-c4cc(=O)n(C5CC5)cc4-c4ccccc4)cn(C)c(=O)c3[nH]2)cc(C)n1.Cl` [Example 28, 4-(1-cyclopropyl-2-oxo-5-phenyl-1,2-dihydropyridin-4-yl)-2-(2,6-dimethylpyridin-4-yl)-6-methyl-1,6-dihydro-7H-pyrrolo[2,3-c]pyridin-7-one hydrogen chloride] showed an IC50 at BRD4 BD1 of over 1 µM. In addition, at BRD4 BD2, the IC50 was under 0.01 µM and the “Fold Selectivity BRD4 BD1/BD2” value was “xxxx (Fold >1000)”.
In the case of `Cc1cc(-c2cc3c(-c4cc(=O)n(C)cc4-c4ccc(F)cc4)cn(C)c(=O)c3[nH]2)cc(C)n1.Cl` [Example 30, 2-(2,6-dimethylpyridin-4-yl)-4-(5-(4-fluorophenyl)-1-methyl-2-oxo-1,2-dihydropyridin-4-yl)-6-methyl-1,6-dihydro-7H-pyrrolo[2,3-c]pyridin-7-one hydrochloride], at BRD4 BD1, the IC50 was over 1 µM. Moreover, at BRD4 BD2, the IC50 was under 0.01 µM and the “Fold Selectivity BRD4 BD1/BD2” value is given as “xxxx (Fold >1000)”.
On to `Cn1ccc(-c2cc3c(-c4cc(=O)n(C)cc4-c4ccccc4)cn(C)c(=O)c3[nH]2)cc1=O` [Example 81], for which the IC50 against BRD4 BD1 is over 1 µM. On BRD4 BD2, the IC50 fell in the range of 0.05 to 0.2 µM; the “Fold Selectivity BRD4 BD1/BD2” value was “xx (Fold >50 and ≤200)”.
In turn, `Cc1cccc(C)c1Oc1cn(C)c(=O)cc1-c1cn(C)c(=O)c2[nH]c(-c3cccc(CO)c3F)cc12` [Example 57, 4-(5-(2,6-dimethylphenoxy)-1-methyl-2-oxo-1,2-dihydropyridin-4-yl)-2-(2-fluoro-3-(hydroxymethyl)phenyl)-6-methyl-1,6-dihydro-7H-pyrrolo[2,3-c]pyridin-7-one] registered an IC50 against BRD4 BD1 of over 1 µM. Also, on BRD4 BD2, the half-maximal inhibitory concentration (IC50) is under 0.01 µM and the “Fold Selectivity BRD4 BD1/BD2” value is “xxxx (Fold >1000)”.
For `CN(C)CCn1cc(-c2ccccc2)c(-c2cn(C)c(=O)c3[nH]c(-c4cnn(C(F)(F)F)c4)cc23)cc1=O.O=CO` [Example 61, 4-(1-(2-(dimethylamino)ethyl)-2-oxo-5-phenyl-1,2-dihydropyridin-4-yl)-6-methyl-2-(1-(trifluoromethyl)-1H-pyrazol-4-yl)-1,6-dihydro-7H-pyrrolo[2,3-c]pyridin-7-one formate], at BRD4 BD1, the IC50 lay within 0.05 to 0.5 µM. For the same compound, on BRD4 BD2, the IC50 is under 0.01 µM; the “Fold Selectivity BRD4 BD1/BD2” value is “x (Fold >2 and ≤50)”.
As to `Cc1cccc(C)c1Oc1cn(C)c(=O)cc1-c1cn(C)c(=O)c2[nH]c(-c3cc(F)cc(F)c3F)cc12` [Example 55, 4-(5-(2,6-dimethylphenoxy)-1-methyl-2-oxo-1,2-dihydropyridin-4-yl)-6-methyl-2-(2,3,5-trifluorophenyl)-1,6-dihydro-7H-pyrrolo[2,3-c]pyridin-7-one], the IC50 at BRD4 BD1 was over 1 µM; at BRD4 BD2, under 0.01 µM. Besides, the “Fold Selectivity BRD4 BD1/BD2” value on BRD4 BD2 is recorded as “xxxx (Fold >1000)”.
For `Cc1cccc(C)c1Oc1cn(C)c(=O)cc1-c1cn(C)c(=O)c2[nH]c(-c3cc(CO)ccc3F)cc12` [Example 92], the IC50 is over 1 µM against BRD4 BD1 and 0.01 to 0.05 µM against BRD4 BD2. In addition, the “Fold Selectivity BRD4 BD1/BD2” value on BRD4 BD2 was “xxx (Fold >200 and ≤1000)”.
On BRD4 BD1, `Cc1cccc(C)c1Oc1cn(C2CC2)c(=O)cc1-c1cn(C)c(=O)c2[nH]c(-c3cn(C)nc3C)cc12` [Example 94] showed an IC50 of over 1 µM. Further, at BRD4 BD2, the 50% inhibitory concentration (IC50) was 0.01 to 0.05 µM; the “Fold Selectivity BRD4 BD1/BD2” value was “xxx (Fold >200 and ≤1000)”.
In the case of `Cn1cc(-c2cccc(CS(C)(=O)=O)c2)c(-c2cn(C)c(=O)c3[nH]c(-c4cnn(C(F)(F)F)c4)cc23)cc1=O` [Example 2, 6-methyl-4-(1-methyl-5-(3-((methylsulfonyl)methyl)phenyl)-2-oxo-1,2-dihydropyridin-4-yl)-2-(1-(trifluoromethyl)-1H-pyrazol-4-yl)-1,6-dihydro-7H-pyrrolo[2,3-c]pyridin-7-one], the IC50 against BRD4 BD1 was over 1 µM. On BRD4 BD2, the IC50 was 0.05 to 0.2 µM; the “Fold Selectivity BRD4 BD1/BD2” value is “xx (Fold >50 and ≤200)”.
As to `Cc1cccc(C)c1Oc1cn(C)c(=O)cc1-c1cn(C)c(=O)c2[nH]c(-c3cccc(C(F)F)c3F)cc12` [Example 95], on BRD4 BD1, the IC50 was over 1 µM. For the same compound, on BRD4 BD2, the 50% inhibitory concentration (IC50) lay within 0.05 to 0.2 µM; the “Fold Selectivity BRD4 BD1/BD2” value was “xx (Fold >50 and ≤200)”.
`Cc1cccc(C)c1Oc1cn(C)c(=O)cc1-c1cn(C)c(=O)c2[nH]c(-c3cnn(C(F)F)c3)cc12` [Example 12, 2-(1-(difluoromethyl)-1H-pyrazol-4-yl)-4-(5-(2,6-dimethylphenoxy)-1-methyl-2-oxo-1,2-dihydropyridin-4-yl)-6-methyl-1,6-dihydro-7H-pyrrolo[2,3-c]pyridin-7-one] came in with an IC50 at BRD4 BD1 of over 1 µM. Further, on BRD4 BD2, the IC50 lay within 0.01 to 0.05 µM; the “Fold Selectivity BRD4 BD1/BD2” value was “xxx (Fold >200 and ≤1000)”.
On to `Cn1cc(-c2cccc(COC(F)(F)F)c2)c(-c2cn(C)c(=O)c3[nH]c(-c4cnn(C(F)(F)F)c4)cc23)cc1=O` [Example 17, 6-methyl-4-(1-methyl-2-oxo-5-(3-((trifluoromethoxy)methyl)phenyl)-1,2-dihydropyridin-4-yl)-2-(1-(trifluoromethyl)-1H-pyrazol-4-yl)-1,6-dihydro-7H-pyrrolo[2,3-c]pyridin-7-one], for which the IC50 against BRD4 BD1 was over 1 µM. Also, on BRD4 BD2, the IC50 is under 0.01 µM and the “Fold Selectivity BRD4 BD1/BD2” value is “xxxx (Fold >1000)”.
As to `COCCOc1cccc(-c2cn(C)c(=O)cc2-c2cn(C)c(=O)c3[nH]c(-c4cnn(C(C)C)c4)cc23)c1` [Example 74], the IC50 against BRD4 BD1 was over 1 µM; on BRD4 BD2, 0.01 to 0.05 µM. Moreover, the “Fold Selectivity BRD4 BD1/BD2” value on BRD4 BD2 was “xx (Fold >50 and ≤200)”.
As to `Cc1cccc(C)c1Oc1cn(C)c(=O)cc1-c1cn(C)c(=O)c2[nH]c(-c3ccc(CO)cc3F)cc12` [Example 58, 4-(5-(2,6-dimethylphenoxy)-1-methyl-2-oxo-1,2-dihydropyridin-4-yl)-2-(2-fluoro-4-(hydroxymethyl)phenyl)-6-methyl-1,6-dihydro-7H-pyrrolo[2,3-c]pyridin-7-one], the IC50 at BRD4 BD1 was over 1 µM. On BRD4 BD2, the IC50 is under 0.01 µM and the “Fold Selectivity BRD4 BD1/BD2” value is listed as “xxxx (Fold >1000)”.
Take `Cn1cc(-c2ccccc2)c(-c2cn(C)c(=O)c3[nH]c(-c4cccnc4)cc23)cc1=O` [Example 80]: the half-inhibitory concentration (IC50) on BRD4 BD1 is 0.05 to 0.5 µM; on BRD4 BD2 it was under 0.01 µM. At BRD4 BD2, the “Fold Selectivity BRD4 BD1/BD2” value was “xx (Fold >50 and ≤200)”.
On to `Cn1cc(-c2ccccc2)c(-c2cn(C)c(=O)c3[nH]c(-c4cccc(S(C)(=O)=O)c4)cc23)cc1=O` [Example 83], for which the IC50 against BRD4 BD1 was in the range of 0.5 to 1 µM. Further, on BRD4 BD2, the IC50 is under 0.01 µM; the “Fold Selectivity BRD4 BD1/BD2” value is “xx (Fold >50 and ≤200)”.
For `Cc1cccc(C)c1Oc1cn(C)c(=O)cc1-c1cn(C)c(=O)c2[nH]c(-c3cnn(CC(F)(F)F)c3)cc12` [Example 13, 4-(5-(2,6-dimethylphenoxy)-1-methyl-2-oxo-1,2-dihydropyridin-4-yl)-6-methyl-2-(1-(2,2,2-trifluoroethyl)-1H-pyrazol-4-yl)-1,6-dihydro-7H-pyrrolo[2,3-c]pyridin-7-one], the figures for the IC50 against BRD4 BD1 and against BRD4 BD2 were over 1 µM and 0.01 to 0.05 µM, respectively. Besides, on BRD4 BD2, the “Fold Selectivity BRD4 BD1/BD2” value is “xxx (Fold >200 and ≤1000)”.
Turning to `CCn1cc(-c2cc(=O)n(C)cc2-c2ccccc2)c2cc(-c3cnn(C(F)(F)F)c3)[nH]c2c1=O` [Example 19, 6-ethyl-4-(1-methyl-2-oxo-5-phenyl-1,2-dihydropyridin-4-yl)-2-(1-(trifluoromethyl)-1H-pyrazol-4-yl)-1,6-dihydro-7H-pyrrolo[2,3-c]pyridin-7-one], the IC50 was over 1 µM at BRD4 BD1 and under 0.01 µM on BRD4 BD2. Besides, the “Fold Selectivity BRD4 BD1/BD2” value at BRD4 BD2 is on record as “xxxx (Fold >1000)”.

The record behind these values is patent publication US20260217701A1, “SELECTIVE BET INHIBITORS AND USES THEREOF” (Tay Therapeutics Limited, priority 2022, published 2026).
